# Laboratory results: ChEMBL document CHEMBL1201862, “PubChem BioAssay data set” (2004)
#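 Tested at 5 concentrations; 48 h exposure; 96-well plates; endpoints linearly interpolated, else capped at highest concentration. GI50 is the concentration that inhibits growth by half.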 The source made the active and inactive calls. Rule as the data show it: active = GI50 up to about 1.1 µM and inactive = higher.
# Legend:
# Assay in all cases: growth of human tumour cells (NCI), 48 h
# T47D = tested on: T47D
# CAKI-1 = tested on: CAKI-1
# HT-29 = tested on: HT-29
# HOP-62 = tested on: HOP-62
# Malme-3M = tested on: Malme-3M
# SK-MEL-5 = tested on: SK-MEL-5
# HCT-116 = tested on: HCT-116
# MDA-MB-231 = tested on: MDA-MB-231
# HOP-92 = tested on: HOP-92
# CCRF-CEM = tested on: CCRF-CEM
# SK-OV-3 = tested on: SK-OV-3
# 786-0 = tested on: 786-0
# SR = tested on: SR
# M14 = tested on: M14
# ACHN = tested on: ACHN
# SF-268 = tested on: SF-268
# PC-3 = tested on: PC-3
# MDA-N = tested on: MDA-N
# SK-MEL-28 = tested on: SK-MEL-28
# HL-60 = tested on: HL-60
SMILES,GI50 (T47D),GI50 (CAKI-1),GI50 (HT-29),GI50 (HOP-62),GI50 (Malme-3M),GI50 (SK-MEL-5),GI50 (HCT-116),GI50 (MDA-MB-231),GI50 (HOP-92),GI50 (CCRF-CEM),GI50 (SK-OV-3),GI50 (786-0),GI50 (SR),GI50 (M14),GI50 (ACHN),GI50 (SF-268),GI50 (PC-3),GI50 (MDA-N),GI50 (SK-MEL-28),GI50 (HL-60)
CN(C)CCCNc1c(C#N)[n+]([O-])c2cc(Cl)ccc2[n+]1[O-],11.4 µM (inactive),7.91 µM (inactive),5.58 µM (inactive),11.4 µM (inactive),3.85 µM (inactive),5.02 µM (inactive),7.18 µM (inactive),10.4 µM (inactive),2.69 µM (inactive),3.21 µM (inactive),18.3 µM (inactive),9.95 µM (inactive),0.867 µM (active),8.13 µM (inactive),5.5 µM (inactive),8.89 µM (inactive),4.91 µM (inactive),17.7 µM (inactive),65.5 µM (inactive),–
Cc1nc2c(sc3nc4ccccc4n32)c(=O)[nH]1,> 100 µM (inactive),> 100 µM (inactive),–,> 100 µM (inactive),> 100 µM (inactive),> 100 µM (inactive),> 100 µM (inactive),> 100 µM (inactive),> 100 µM (inactive),> 100 µM (inactive),73.1 µM (inactive),> 100 µM (inactive),> 100 µM (inactive),> 100 µM (inactive),> 100 µM (inactive),> 100 µM (inactive),> 100 µM (inactive),> 100 µM (inactive),> 100 µM (inactive),–
C=CCN(c1cc(OCc2ccccc2)c2c(c1)c(C)cn2S(=O)(=O)c1ccccc1)S(C)(=O)=O,> 100 µM (inactive),> 100 µM (inactive),> 100 µM (inactive),> 100 µM (inactive),> 100 µM (inactive),> 100 µM (inactive),> 100 µM (inactive),> 100 µM (inactive),> 100 µM (inactive),> 100 µM (inactive),> 100 µM (inactive),> 100 µM (inactive),> 100 µM (inactive),> 100 µM (inactive),> 100 µM (inactive),> 100 µM (inactive),> 100 µM (inactive),> 100 µM (inactive),> 100 µM (inactive),> 100 µM (inactive)
COC(=O)CCCc1ccc2c(c1)CC1(C2)Cc2cc3c(cc2C1)CCCC3,50.7 µM (inactive),–,29.6 µM (inactive),34.8 µM (inactive),37.6 µM (inactive),19.2 µM (inactive),3.8 µM (inactive),> 100 µM (inactive),26.1 µM (inactive),–,> 100 µM (inactive),43.9 µM (inactive),< 0.01 µM (active),24.7 µM (inactive),42.7 µM (inactive),–,36.8 µM (inactive),16.8 µM (inactive),–,12.4 µM (inactive)
Fc1cc2nc3n(c2cc1F)C(c1c(Cl)cccc1Cl)SC3 (stereo not drawn),14.3 µM (inactive),14.1 µM (inactive),16.2 µM (inactive),16 µM (inactive),17.6 µM (inactive),7.82 µM (inactive),12.6 µM (inactive),18.8 µM (inactive),13.6 µM (inactive),–,16.5 µM (inactive),15 µM (inactive),4.51 µM (inactive),15.7 µM (inactive),17.5 µM (inactive),16.5 µM (inactive),16.3 µM (inactive),15.7 µM (inactive),14 µM (inactive),15.5 µM (inactive)
CC(=O)Nc1ccc(NC(=O)CC(=O)Nc2ccc(NC(C)=O)cc2)cc1,32 µM (inactive),> 100 µM (inactive),> 100 µM (inactive),–,> 100 µM (inactive),> 100 µM (inactive),> 100 µM (inactive),> 100 µM (inactive),> 100 µM (inactive),> 100 µM (inactive),20.2 µM (inactive),> 100 µM (inactive),> 100 µM (inactive),> 100 µM (inactive),> 100 µM (inactive),> 100 µM (inactive),> 100 µM (inactive),> 100 µM (inactive),> 100 µM (inactive),> 100 µM (inactive)
CCOC(=O)C(O)(C(=O)OCC)c1cc(C(C)(C)C)c(O)c(C(C)(C)C)c1,62.2 µM (inactive),41.2 µM (inactive),28.1 µM (inactive),> 100 µM (inactive),42.2 µM (inactive),17.8 µM (inactive),35.1 µM (inactive),53 µM (inactive),26.9 µM (inactive),37.2 µM (inactive),70.3 µM (inactive),51.4 µM (inactive),33.6 µM (inactive),39 µM (inactive),41.3 µM (inactive),40.7 µM (inactive),33.7 µM (inactive),36.4 µM (inactive),31.8 µM (inactive),25.5 µM (inactive)
COc1cccc(CCNc2c(C#N)c3n(c4ccccc4[n+]3C)c3ncccc23)c1,6.59 µM (inactive),6.52 µM (inactive),1.41 µM (inactive),17.5 µM (inactive),17.5 µM (inactive),14.6 µM (inactive),1.77 µM (inactive),4.52 µM (inactive),27.7 µM (inactive),–,20.3 µM (inactive),1.76 µM (inactive),> 100 µM (inactive),1.76 µM (inactive),16.7 µM (inactive),16.4 µM (inactive),14.4 µM (inactive),5.2 µM (inactive),20.2 µM (inactive),1.79 µM (inactive)
CC12CC(Br)(Br)C(=O)C3C1CCCC32,2.38 µM (inactive),2.65 µM (inactive),5.47 µM (inactive),17.5 µM (inactive),4.06 µM (inactive),5.55 µM (inactive),1.93 µM (inactive),3.24 µM (inactive),2.17 µM (inactive),1.36 µM (inactive),15.3 µM (inactive),4.07 µM (inactive),4.43 µM (inactive),3.64 µM (inactive),5.27 µM (inactive),10.2 µM (inactive),12.2 µM (inactive),2.99 µM (inactive),2.9 µM (inactive),0.767 µM (active)
N=C(N)NCCCCCCC(=O)NC(O)C(=O)NCCCCNCCCN (stereo not drawn),> 750 µM (inactive),–,> 750 µM (inactive),726 µM (inactive),582 µM (inactive),> 750 µM (inactive),711 µM (inactive),> 750 µM (inactive),360 µM (inactive),515 µM (inactive),> 750 µM (inactive),3070 µM (inactive),1280 µM (inactive),> 750 µM (inactive),> 750 µM (inactive),> 750 µM (inactive),> 750 µM (inactive),2360 µM (inactive),> 750 µM (inactive),> 750 µM (inactive)
C[C@@H]1CC[C@@]2(C)C(C(=O)O)=CCCC2[C@@]1(C)CC(=O)c1ccoc1 (stereo partly drawn),> 25 µM (inactive),> 25 µM (inactive),> 25 µM (inactive),–,–,> 25 µM (inactive),> 25 µM (inactive),> 25 µM (inactive),> 25 µM (inactive),> 25 µM (inactive),> 25 µM (inactive),> 25 µM (inactive),> 25 µM (inactive),> 25 µM (inactive),> 25 µM (inactive),> 25 µM (inactive),> 25 µM (inactive),> 25 µM (inactive),> 25 µM (inactive),> 25 µM (inactive)
COc1ccc2c(c1OC)C(Br)CCC(Br)(Br)C2=O (stereo not drawn),13.8 µM (inactive),1.78 µM (inactive),4.43 µM (inactive),18.9 µM (inactive),10.7 µM (inactive),2.47 µM (inactive),4.9 µM (inactive),16.3 µM (inactive),3.52 µM (inactive),–,16.4 µM (inactive),4.23 µM (inactive),1.27 µM (inactive),5.25 µM (inactive),1.94 µM (inactive),14 µM (inactive),11.9 µM (inactive),3.99 µM (inactive),13.1 µM (inactive),5.27 µM (inactive)
O=c1[nH]c(Br)nc2[nH]nnc12,26.2 µM (inactive),7.08 µM (inactive),> 100 µM (inactive),17.7 µM (inactive),6.95 µM (inactive),68.9 µM (inactive),32 µM (inactive),34.7 µM (inactive),> 100 µM (inactive),7.55 µM (inactive),39.3 µM (inactive),25.1 µM (inactive),42.2 µM (inactive),19.8 µM (inactive),> 100 µM (inactive),11 µM (inactive),69.5 µM (inactive),38.9 µM (inactive),–,5.52 µM (inactive)
C[C@@]12[C@H]3CC[C@@H]1[C@H](O)C(=O)N2CC3,> 100 µM (inactive),> 100 µM (inactive),> 100 µM (inactive),> 100 µM (inactive),> 100 µM (inactive),> 100 µM (inactive),–,> 100 µM (inactive),> 100 µM (inactive),> 100 µM (inactive),> 100 µM (inactive),> 100 µM (inactive),> 100 µM (inactive),> 100 µM (inactive),> 100 µM (inactive),> 100 µM (inactive),> 100 µM (inactive),> 100 µM (inactive),> 100 µM (inactive),> 100 µM (inactive)
C=C(C)[C@@H]1CC[C@]2(C)CC[C@]3(C)[C@H](CC[C@@H]4[C@@]5(C)CC[C@H](O)C(C)(C)[C@@H]5CC[C@]43C)[C@@H]12 [LUPEOL],> 100 µM (inactive),> 81.1 µM (inactive),> 78.2 µM (inactive),> 58.3 µM (inactive),> 89.3 µM (inactive),> 74 µM (inactive),44.5 µM (inactive),58.6 µM (inactive),36.1 µM (inactive),22.1 µM (inactive),–,37.2 µM (inactive),42.8 µM (inactive),> 94.6 µM (inactive),> 55.1 µM (inactive),> 55.7 µM (inactive),32.3 µM (inactive),32.7 µM (inactive),> 65.2 µM (inactive),47.4 µM (inactive)
